Experimental data: paper PMC8318231, “Rate-of-Kill (RoK) assays to triage large compound sets for Chagas disease drug discovery: Application to GSK Chagas Box” (PLoS Neglected Tropical Diseases, 2021)

Tests used:
[1] = tested on: T. cruzi intracellular amastigotes in H9c2 cells; experiment: Rate-of-Kill (RoK) high-content imaging assay, amastigotes per cell (AM/CELL) and curve descriptors; assay type: cell-based, Trypanosoma cruzi; parameters: key to ME_24h / ME_48h / ME_72h: % reduction in parasite burden (cidal response); t50pct_MCC50 / t50pct_Cmax: unit not given here; conditions: for ME_24h: 24h; for ME_48h: 48h; for ME_72h: 72h; for AM/CELL NORM: sheet figure 4 A; for ME_24h (%): maximum effect at 24 h; for ME_24h (%) / ME_48h (%) / ME_72h (%): RoK assay; for ME_48h (%): maximum effect at 48 h; for ME_72h (%): maximum effect at 72 h; for ME 24h (maximum effect at 24 hours, intracellular amastigotes): maximum percentage of parasite burden reduction reached by any concentration
Method in brief: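 Readouts at each time point are amastigotes per cell and host nuclei count (cytotoxicity), from DRAQ5 high-content imaging. Infection: trypomastigotes on H9c2 at MOI 8 for 18 h. Dosing was 5 μM single point or 11 points, 1/3 steps from 50 μM. Effect scaled between 4 h infected and uninfected controls.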

[2] = tested on: T. cruzi Tulahuen trypomastigotes; experiment: T. cruzi trypomastigote assay (Cell Titer-Glo viability, ATP luminescence); assay type: cell-based, Trypanosoma cruzi; conditions: for Trypomastigotes pIC50 48 hours: 48 hours incubation; for Trypomastigotes pIC50 48 hours / Trypomastigotes pIC50 72 hours: pIC50 = -log10 IC50 in molar units; for Trypomastigotes pIC50 72 hours: 72 hours incubation; for 72 pIC50 (trypomastigotes, raw data of Fig 1D): 72 hours, plotted values, censored values given without sign; for 48 pIC50 / 72 pIC50: trypomastigote assay; for 48 pIC50: 48 h; for 72 pIC50: 72 h
Method in brief: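 Compounds were tested in dose response or once at a final 5 μM against 5 × 10^4 trypomastigotes per well (DMEM, 2% FBS), collected on days 5–8 from LLC-MK2 infected cultures. ATP luminescence via CellTiter-Glo reports live parasites; DMSO defines 0% and cell-free wells 100% effect.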

TcCYP51 = conditions: formerly reported; cited from earlier work

| Compound | ME_24h ([1]; figure 5) | ME_48h ([1]; figure 5) | ME_72h ([1]; figure 5) | MCCE ([1]; RoK curve descriptor) [µM] | AM/CELL NORM ([1]; Time 4) | AM/CELL NORM ([1]; Time 24) | AM/CELL NORM ([1]; Time 48) | AM/CELL NORM ([1]; Time 72) | tlag_Cmax ([1]; at Cmax) [h] | t50pct_Cmax ([1]; at Cmax, figure 5) | tlag_Cmax ([1]; at Cmax, figure 5) | t50pct_MCC50 ([1]; at MCC50, figure 5) | tlag_MCC50 ([1]; at MCC50, figure 5) | MCCE ([1]; figure 5) | ME_24h (%) [1] [%] | ME_48h (%) [1] [%] | ME_72h (%) [1] [%] | ME 24h (maximum effect at 24 hours, intracellular amastigotes) [1] [%] | Trypomastigotes pIC50 48 hours [2] | Trypomastigotes pIC50 72 hours [2] | further results |
| --- | --- | --- | --- | --- | --- | --- | --- | --- | --- | --- | --- | --- | --- | --- | --- | --- | --- | --- | --- | --- | --- |
| Clc1ccc(Sc2cnccc2N2CCOCC2)cc1 [TCMDC-143602] | -12.5205 | -29.081 | 15.6088 | 0.2 | 3.934 | -12.5205 | -29.081 | -95.1907 | 72.0 | 72 | 72 | 72 | 72 | 0.2058 | -12.5 | -29.1 | 15.6 | -12.5205 | 4.5 | < 4.3 | MCC50 ([1]; figure 5): 50 µM; CYP51 pIC50 (TcCYP51): 7.5 |
| O=C(c1cccc(Cl)c1Cl)N1CCn2c1nc(-c1ccncc1)cc2=O [TCMDC-143409] | -46.4941 | -253.426 | 11.7221 | 0.6 | 24.5196 | -46.4941 | -266.503 | -474.938 | 72.0 | 72 | 72 | 72 | 72 | 0.6173 | -46.5 | -253.4 | 11.7 | -46.4941 | < 4.3 | < 4.3 | MCC50 ([1]; figure 5): 50 µM; 72 pIC50 (trypomastigotes, raw data of Fig 1D) [2]: < 4.3; 48 pIC50 ([2]; figure 1A): < 4.3; 72 pIC50 ([2]; figure 1A): < 4.3; 72 pIC50 ([2]; figure 1B): < 4.3; CYP51 pIC50 (TcCYP51): 7.2 |
| CS(=O)(=O)c1cccc(-c2cnc(N)c3c(-c4ccc(CO)cc4)csc23)c1.O=C(O)C(F)(F)F [TCMDC-143410] | 16.9023 | 39.285 | 41.8133 | 1.2 | 25.2958 | 6.562 | -1.837 | 13.104 | 36.0 | 72 | 36 | 72 | 38 | 1.235 | 16.9 | 39.3 | 41.8 | 40.1676 | 4.5 | 4.4 | MCC50 ([1]; RoK curve descriptor): 1.9 µM; t50%_MCC50 ([1]; at MCC50): 72.0 h; tlag_MCC50 ([1]; at MCC50): 4.0 h; MCC50 ([1]; figure 5, in µM): 25.9259; CYP51 pIC50 (TcCYP51): 5.5 |
| O=c1[nH]ccc2ccc(-c3ccncc3)cc12 [TCMDC-143631] | -43.2523 | -170.763 | 18.409 | 0.6 | -16.1027 | -43.2523 | -202.655 | 18.409 | 48.0 | 72 | 48 | 72 | 72 | 0.6173 | -43.3 | -170.8 | 18.4 | -43.2523 | < 4.3 | < 4.3 | MCC50 ([1]; figure 5): 50 µM; 72 pIC50 (trypomastigotes, raw data of Fig 1D) [2]: < 4.3; 48 pIC50 ([2]; figure 1A): < 4.3; 72 pIC50 ([2]; figure 1A): < 4.3; 72 pIC50 ([2]; figure 1B): < 4.3; CYP51 pIC50 (TcCYP51): 7.8 |
| CCCCn1nnnc1CSc1nc(C)cc(C)c1C#N [TCMDC-143315] | 53.1743 | 83.3988 | 72.5932 | 0.2 | 13.5421 | 53.1743 | 83.3988 | 54.3555 | 4.0 | 24 | 4 | 48 | 4 | 0.2058 | 53.2 | 83.4 | 72.6 | 53.1743 | 6.6 | 6.8 | MCC50 ([1]; RoK curve descriptor): 0.6 µM; t50%_Cmax ([1]; at Cmax): 24.0 h; t50%_MCC50 ([1]; at MCC50): 48.0 h; tlag_MCC50 ([1]; at MCC50): 4.0 h; MCC50 ([1]; figure 5, in µM): 0.6173; CYP51 pIC50 (TcCYP51): 4.3 |
